Marks after values point to notes of the source that are not given here.
Assays:
[1] = tested on: NIH3T3/FGFR3^S249C subcutaneous tumors; assay: Anti-tumor activity in subcutaneous NIH3T3/FGFR3^S249C tumor homograft model in nude mice; type: in vivo, mouse; conditions: p.o., qd, treatment day 8
Protocol: (§1) Animals. Experiments were performed in female HsdNpa: Athymic Nude-nu mice obtained from Laboratory Animal Services, Novartis Pharma AG, Basel, Switzerland. The animals were kept under OHC conditions in Makrolon type II cages (maximum of 10 animals/cage) with 12 hour dark, 12 hour light conditions (lights on: 6 AM, lights off: 6 PM). The animals were fed food and water ad libitum. Experiments were conducted under license number 1762 and license number 1763 approved by the Basel Cantonal Veterinary Office. All invasive procedures were performed under Forene anesthesia.
Establishment of NIH3T3/FGFR3^S249C tumor homograft model in nude mice. The NIH3T3/FGFR3^S249C model has been validated and characterized as a subcutaneous murine tumor model for the in vivo profiling of FGFR inhibitors. The parental NIH3T3 cell line was originally derived by immortalization of mouse embryonic fibroblasts. NIH3T3/FGFR3^S249C cells were generated by infection of parental NIH3T3 fibroblasts with a retroviral vector expressing FGFR3 with the activating mutation S249C. Pools of G418 resistant NIH3T3^S249C cells were established and characterized for FGFR3 expression and tyrosine phosphorylation. To generate homografts, 5×10^5 NIH3T3/FGFR3^S249C cells resuspended in PBS were injected subcutaneously in nude mice (0.2 ml/mouse).
Evaluation of anti-tumor activity. For the NIH3T3/FGFR3^S249C model, treatment was initiated when the average tumor volume reached approximately 100 mm^3. Tumor growth and body weights were monitored at regular intervals. The tumor sizes were measured manually with calipers. Tumor volume was estimated using the formula: (W×L×H×π/6), where width (W), length (L) and height (H) are the three largest diameters.
(§2) Statistical analysis. When applicable, results are presented as mean±SEM. Tumor and body weight data were analyzed by ANOVA with post hoc Dunnett's test for comparison of treatment versus control group. The post hoc Tukey test was used for intra-group comparison. The level of significance of body weight change within a group between the start and the end of the experiment was determined using a paired t-test. Statistical analysis was performed using GraphPad prism 4.02 (GraphPad Software).
(§3) As a measure of anti-tumor efficacy, the % T/C value is calculated at a certain number of days after treatment start according to: (mean change of tumor volume treated animals/mean change tumor volume control animals)×100. When applicable, % regressions are calculated according to the formula (mean change tumor volume/mean initial tumor volume)×100.
(§4) Compound formulation and animal treatment. […] Vehicle consisted of PEG300/DSW. The application volumes were 10 ml/kg.

[2] = tested on: RT112/lucl xenograft tumors; assay: Anti-tumor activity in RT112/lucl subcutaneous xenograft model in nude mice; type: in vivo, mouse; conditions: 14 days; for Regr. (%) / Δ body weight (% ± SEM) / Δ body weight (mean g ± SEM) / Δ tumor volume (mean mm^3 ± SEM): p.o., qd
Protocol: as §1
Establishment of RT112/lucl tumor xenograft model in nude mice. The parental RT-112 human urinary bladder transitional cell carcinoma cell line, which expressed high levels of wild type FGFR3, was initially derived from a patient with untreated primary urinary bladder carcinoma (histological grade G2, stage not recorded) in 1973 (Marshall et al., 1977, Masters et al., 1986). The original stock vial of RT112 cells used in this study was obtained from DSMZ ACC #418.
The cells were cultured in MEM medium supplemented with 10% Fetal Calf Serum, 1% sodium pyruvate and 1% L-glutamine. Cell culture reagents were purchased from BioConcept (Allschwil, Switzerland).
The parental RT112 cell line was infected with the retroviral expression vector pLNCX2/lucl and pools of G418 resistant cells were established and characterized for luciferase expression. The CMV driven expression of luciferase allows the detection of tumors using Xenogen IVIS™ cameras after injection of D-luciferin.
For the RT112/lucl model, treatments were initiated when the mean tumor volumes were approx. 180 mm^3 and mice were treated daily for 14 days. Body weights and tumor volumes were recorded twice a week. Tumor volumes were measured with calipers and determined according to the formula length×diameter^2×π/6.
as §2, §3, §4

FGF23 [3] = assay: FGF23 ELISA in serum of wistar rats; type: in vivo, rat; conditions: single oral 10 mg/kg; 24 h post administration; p<0.01
Protocol: Data are presented as means of n=6, ±SD.
Animals. Experiments were performed in female wistar rats furth WF/Ico
The application volumes were 5 ml/kg.
Blood samples were drawn sublingually at 24 h post-compound administration. Plasma, as well as serum samples were prepared from each blood sample.

FGF23 [4] = assay: FGF23 ELISA in plasma of dogs; type: in vivo, dog; conditions: plasma 1 hour after last administration
FGF23 [5] = assay: FGF23 ELISA in plasma of nude mice bearing RT112/lucl xenografts; type: in vivo, mouse; conditions: 50 or 75 mg/kg/qd p.o., 14 days; two hours post-last dosing
Protocol: Data are presented as means±SD.
Tissue processing for ex vive analysis. At the end of the experiments, 2 hours after the last compound administrations, tumor samples and blood were collected.
Aliquots of 50 mg tumor powder were weighed, placed on ice and immediately resuspended at a ratio of 1:10 (w/v) in ice-chilled lysis buffer (50 mM Tris pH 7.5, 150 mM NaCl, 1 mM EGTA, 5 mM EDTA, 1% Triton, 2 mM NaVanadate, 1 mM PMSF and protease inhibitors cocktail Roche #11873580001). Lysis was allowed to proceed for 30 min on ice, lysates were clarified by centrifugation at 12000×g for 15 min and protein concentration was determined using DC protein assay reagents (Bio Rad #500-0116) and a BSA standard. Blood was collected from the vena cava with a 23 gauge needle into a 1 ml syringe containing 70 μl of a 1000 IU/ml heparin solution. Blood was then stored on ice for 30 min until centrifugation (10,000 g, 5 min) and then the plasma was collected.
FGF23 ELISA assay. […] Briefly, two specific murine monoclonal antibodies that bind to full-length FGF-23 are used: the first antibody is immobilized onto the microtiter plate well for capture and the second antibody is cojugated to HRP (horseradish peroxidase) for detection. In a first reaction, plasma or serum samples are added onto microtiter wells coated with the anti-FGF23 antibody to allow binding. […]

[6] = Rat mechanistic study: histopathology and tolerability; type: in vivo

CCN1CCN(c2ccc(Nc3cc(N(C)C(=O)Nc4c(Cl)c(OC)cc(OC)c4Cl)ncn3)cc2)CC1 [COMPOUND A, 3-(2,6-Dichloro-3,5-dimethoxy-phenyl)-1-{6-[4-(4-ethyl-perpazin-1-yl)-phenylamino]-pyrimidin-4-yl}-1-methyl urea]
T/C (%) ([1]; 10 mg/kg): 34% | Δ body weight (% ± SEM) ([1]; 10 mg/kg): 18.0 ± 3.2% | Δ body weight (mean g ± SEM) ([1]; 10 mg/kg): 4.2 ± 0.7 g | Δ tumor volume (mean mm^3 ± SEM) ([1]; 10 mg/kg): 1320 ± 245* mm^3 | T/C (%) ([1]; 30 mg/kg): 4% | Δ body weight (% ± SEM) ([1]; 30 mg/kg): 7.0 ± 3.1 % | Δ body weight (mean g ± SEM) ([1]; 30 mg/kg): 1.6 ± 0.7 g | Δ tumor volume (mean mm^3 ± SEM) ([1]; 30 mg/kg): 156 ± 56* mm^3 | Regr. (%) ([1]; 50 mg/kg): 40% | Δ body weight (% ± SEM) ([1]; 50 mg/kg): 4.6 ± 2.2 % | Δ body weight (mean g ± SEM) ([1]; 50 mg/kg): 1.1 ± 0.5 g | Δ tumor volume (mean mm^3 ± SEM) ([1]; 50 mg/kg): −43 ± 28* mm^3 | Regr. (%) ([2]; 50 mg/kg): 67% | Δ body weight (% ± SEM) ([2]; 50 mg/kg): 10.8 ± 4.1% | Δ body weight (mean g ± SEM) ([2]; 50 mg/kg): 2.6 ± 1.0 g | Δ tumor volume (mean mm^3 ± SEM) ([2]; 50 mg/kg): −120 ± 12* mm^3 | Regr. (%) ([2]; 75 mg/kg): 74% | Δ body weight (% ± SEM) ([2]; 75 mg/kg): −4.0 ± 4.5% | Δ body weight (mean g ± SEM) ([2]; 75 mg/kg): -1.1 ± 1.1 g | Δ tumor volume (mean mm^3 ± SEM) ([2]; 75 mg/kg): −133 ± 13* mm^3 | Tolerability of treatments ([2]; 50 and 75 mg/kg per day orally): well tolerated | serum levels of FGF23 vs vehicle-treated group (FGF23 [3]): statistically significant increased in serum levels of FGF23 | FGF-23 cont. (FGF23 [4]; group 2, 3 → 100 mg/kg/day p.o., animal # 453 (male)): 262.5 pg/mL | FGF-23 cont. (FGF23 [4]; group 2, 3 → 100 mg/kg/day p.o., animal # 454 (female)): 211.3 pg/mL | FGF-23 cont. (FGF23 [4]; group 3, 30 mg/kg/day p.o., 15 days, animal # 455 (male)): 534.3 pg/mL | FGF-23 cont. (FGF23 [4]; group 3, 30 mg/kg/day p.o., 15 days, animal # 456 (female)): 322.7 pg/mL | FGF-23 cont. (FGF23 [4]; group 4, 300 mg/kg/day p.o., 8 days, animal # 457 (male)): 824.6 pg/mL | FGF-23 cont. (FGF23 [4]; group 4, 300 mg/kg/day p.o., 8 days, animal # 458 (female)): 614.8 pg/mL | Plasma levels of FGF23 vs vehicle-treated group (FGF23 [5]): increased plasma levels of FGF23 | Bone remodeling events (histopathology) ([6]; 10 mg/kg/day 15 days + 4 days recovery, 20 mg/kg/day 3 days + 4 days recovery, 20 mg/kg/day 6 days): Signs of bone remodeling events were noted | Soft tissue/vascular mineralization (histopathology) ([6]; 10 mg/kg/qd groups): not observed | Body weight effect leading to premature termination ([6]; 20 mg/kg once daily p.o., after the 6th administration): severe body weight loss | Soft tissue/vascular mineralization (histopathology) ([6]; 20 mg/kg/day for 3 days after 4 recovery days, and after 6 days of treatment): Soft tissue/vascular mineralization was detected | Growth plate thickening (histopathology) ([6]; male rats, 10 and 20 mg/kg/day p.o., after three days of treatment): Growth plate thickening was detected

— patent US20150323548A1, “METHODS OF MONITORING THE MODULATION OF THE KINASE ACTIVITY OF FIBROBLAST GROWTH FACTOR RECEPTOR AND USES OF SAID METHODS” (Novartis AG, priority 2008, published 2015)
